The values below come from the supplement of paper PMC8967900.
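Also: ALL cell lines in 384-well plates, five doses spanning 10,000-fold, each plate scaled between vehicle and 100 µmol/L benzalkonium chloride controls, sDSS an adapted area-under-curve metric.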

The subject of the first assay is SEM cells. The assay is described as follows: selective drug sensitivity score (sDSS, relative to normal bone marrow) (sDSS (score)); higher = more potent and effective on the cell line relative to normal bone marrow cells. Conditions: 72 h.
As for `Cc1ccc(NC(=O)c2ccc(CN3CCN(C)CC3)cc2)cc1Nc1nc(-c2cccnc2)cs1` [Masitinib] (top concentration 10000 nM), the “selective drug sensitivity score” value amounted to 0.22.

Regarding `CCN(CC)CCCC(C)Nc1c2ccc(Cl)cc2nc2ccc(OC)cc12` (stereo not given) [Mepacrine] (top concentration 50000 nM), the “selective drug sensitivity score” value is -0.1.

Regarding `COc1ccc(-c2ccc3ncc4c(c3c2)n(-c2ccc(N3CCNCC3)c(C(F)(F)F)c2)c(=O)n4C)cn1` [NVP-BGT226] (top concentration 1000 nM), the “selective drug sensitivity score” value worked out at 6.82.

As for `COc1nc(N)nc2c1ncn2[C@@H]1O[C@H](CO)[C@@H](O)[C@@H]1O` [Nelarabine] (top concentration 10000 nM), the “selective drug sensitivity score” value is -10.2.

Turning to `Cc1cn(-c2cc(NC(=O)c3ccc(C)c(Nc4nccc(-c5cccnc5)n4)c3)cc(C(F)(F)F)c2)cn1` [Nilotinib] (top concentration 10000 nM), the “selective drug sensitivity score” value is 4.9.

In the case of `NC(=O)c1cccc2cn(-c3ccc(C4CCCNC4)cc3)nc12` (stereo not given) [Niraparib] (top concentration 10000 nM), the “selective drug sensitivity score” value was determined as 2.98.

As to `COc1ccc(C[C@H](NC(=O)[C@H](C)NC(=O)CN2CCOCC2)C(=O)N[C@@H](Cc2ccccc2)C(=O)[C@@]2(C)CO2)cc1` [ONX-0914] (top concentration 10000 nM), the “selective drug sensitivity score” value worked out at 7.2.

Turning to `CC(=O)c1cnc2ccc(-c3cc(Cl)c(O)c(Cl)c3)nc2c1N[C@H]1CC[C@H](CN(C)C)CC1` [OTS167] (top concentration 1000 nM), the “selective drug sensitivity score” value was found to be 0.58.

In the case of `COC(=O)C[C@](O)(CCCC(C)(C)O)C(=O)O[C@@H]1C(OC)=C[C@]23CCCN2CCc2cc4c(cc2[C@H]13)OCO4` [Omacetaxine] (top concentration 10000 nM), the “selective drug sensitivity score” value is 4.22.

In a further assay the test system is SUP-B15. Described as above. To be noted: 72 h.
Consider `CCOC(=O)CCNc1cc(N2CCc3ccccc3CC2)nc(-c2ccccn2)n1` [GSK-J4] (top concentration 100000 nM), for which the “selective drug sensitivity score” value was -8.48.

Consider `Cc1cc(Nc2cc(CN3CCOCC3)c3nc(C)c(Cc4ccc(Cl)cc4F)n3n2)n[nH]1` [Gandotinib] (top concentration 10000 nM), for which the “selective drug sensitivity score” value was found to be 7.78.

On to `NC(=O)NO` [Hydroxyurea] (top concentration 1000000 nM), for which the “selective drug sensitivity score” value turned out to be 9.96.

Turning to `Cc1ccc(NC(=O)c2ccc(CN3CCN(C)CC3)cc2)cc1Nc1nccc(-c2cccnc2)n1` [Imatinib] (top concentration 10000 nM), the “selective drug sensitivity score” value is 17.4.

Regarding `CC(C)NC[C@@H](C(=O)N1CCN(c2ncnc3c2[C@H](C)C[C@H]3O)CC1)c1ccc(Cl)cc1` [Ipatasertib] (top concentration 10000 nM), the “selective drug sensitivity score” value stood at 0.8.

In the case of `CCC(C)n1ncn(-c2ccc(N3CCN(c4ccc(OCC5COC(Cn6cncn6)(c6ccc(Cl)cc6Cl)O5)cc4)CC3)cc2)c1=O` (stereo not given) [Itraconazole] (top concentration 5000 nM), the “selective drug sensitivity score” value worked out at 1.18.

Consider `Cc1sc2c(c1C)C(c1ccc(Cl)cc1)=N[C@@H](CC(=O)OC(C)(C)C)c1nnc(C)n1-2` [JQ1] (top concentration 10000 nM), for which the “selective drug sensitivity score” value came out at 3.02.

For the compound `CCNC(=O)c1noc(-c2cc(C(C)C)c(O)cc2O)c1-c1ccc(CN2CCOCC2)cc1` [Luminespib] (top concentration 1000 nM), the “selective drug sensitivity score” value was -1.

Consider `O=C(c1cccc(Cl)c1F)N1CCN(Cc2cccc(Nc3nccs3)n2)CC1` [MK-8745] (top concentration 10000 nM), for which the “selective drug sensitivity score” value was 18.3.

Consider `Cc1ccc(NC(=O)c2ccc(CN3CCN(C)CC3)cc2)cc1Nc1nc(-c2cccnc2)cs1` [Masitinib] (top concentration 10000 nM), for which the “selective drug sensitivity score” value was found to be 7.52.

For the compound `CCN(CC)CCCC(C)Nc1c2ccc(Cl)cc2nc2ccc(OC)cc12` (stereo not given) [Mepacrine] (top concentration 50000 nM), the “selective drug sensitivity score” value is -1.1.

Regarding `COc1ccc(-c2ccc3ncc4c(c3c2)n(-c2ccc(N3CCNCC3)c(C(F)(F)F)c2)c(=O)n4C)cn1` [NVP-BGT226] (top concentration 1000 nM), the “selective drug sensitivity score” value came to 10.2.

As to `COc1nc(N)nc2c1ncn2[C@@H]1O[C@H](CO)[C@@H](O)[C@@H]1O` [Nelarabine] (top concentration 10000 nM), the “selective drug sensitivity score” value came to 5.78.

For the compound `Cc1cn(-c2cc(NC(=O)c3ccc(C)c(Nc4nccc(-c5cccnc5)n4)c3)cc(C(F)(F)F)c2)cn1` [Nilotinib] (top concentration 10000 nM), the “selective drug sensitivity score” value came to 31.6.

As for `NC(=O)c1cccc2cn(-c3ccc(C4CCCNC4)cc3)nc12` (stereo not given) [Niraparib] (top concentration 10000 nM), the “selective drug sensitivity score” value came out at 17.2.

Regarding `COc1ccc(C[C@H](NC(=O)[C@H](C)NC(=O)CN2CCOCC2)C(=O)N[C@@H](Cc2ccccc2)C(=O)[C@@]2(C)CO2)cc1` [ONX-0914] (top concentration 10000 nM), the “selective drug sensitivity score” value is 11.5.

As for `CC(=O)c1cnc2ccc(-c3cc(Cl)c(O)c(Cl)c3)nc2c1N[C@H]1CC[C@H](CN(C)C)CC1` [OTS167] (top concentration 1000 nM), the “selective drug sensitivity score” value stood at 2.98.

With `COC(=O)C[C@](O)(CCCC(C)(C)O)C(=O)O[C@@H]1C(OC)=C[C@]23CCCN2CCc2cc4c(cc2[C@H]13)OCO4` [Omacetaxine] (top concentration 10000 nM), the “selective drug sensitivity score” value was 7.82.

The subject of the next assay is TANOUE. Described as above. To be noted: 72 h.
Turning to `CCOC(=O)CCNc1cc(N2CCc3ccccc3CC2)nc(-c2ccccn2)n1` [GSK-J4] (top concentration 100000 nM), the “selective drug sensitivity score” value is -11.6.

With `Cc1cc(Nc2cc(CN3CCOCC3)c3nc(C)c(Cc4ccc(Cl)cc4F)n3n2)n[nH]1` [Gandotinib] (top concentration 10000 nM), the “selective drug sensitivity score” value is -7.72.

In the case of `NC(=O)NO` [Hydroxyurea] (top concentration 1000000 nM), the “selective drug sensitivity score” value was -3.94.

On to `Cc1ccc(NC(=O)c2ccc(CN3CCN(C)CC3)cc2)cc1Nc1nccc(-c2cccnc2)n1` [Imatinib] (top concentration 10000 nM), for which the “selective drug sensitivity score” value is -0.44.

As to `CC(C)NC[C@@H](C(=O)N1CCN(c2ncnc3c2[C@H](C)C[C@H]3O)CC1)c1ccc(Cl)cc1` [Ipatasertib] (top concentration 10000 nM), the “selective drug sensitivity score” value was -1.8.

On to `CCC(C)n1ncn(-c2ccc(N3CCN(c4ccc(OCC5COC(Cn6cncn6)(c6ccc(Cl)cc6Cl)O5)cc4)CC3)cc2)c1=O` (stereo not given) [Itraconazole] (top concentration 5000 nM), for which the “selective drug sensitivity score” value is -2.92.

Consider `Cc1sc2c(c1C)C(c1ccc(Cl)cc1)=N[C@@H](CC(=O)OC(C)(C)C)c1nnc(C)n1-2` [JQ1] (top concentration 10000 nM), for which the “selective drug sensitivity score” value was -7.48.

In the case of `CCNC(=O)c1noc(-c2cc(C(C)C)c(O)cc2O)c1-c1ccc(CN2CCOCC2)cc1` [Luminespib] (top concentration 1000 nM), the “selective drug sensitivity score” value was -10.5.

With `O=C(c1cccc(Cl)c1F)N1CCN(Cc2cccc(Nc3nccs3)n2)CC1` [MK-8745] (top concentration 10000 nM), the “selective drug sensitivity score” value was -0.8.

With `Cc1ccc(NC(=O)c2ccc(CN3CCN(C)CC3)cc2)cc1Nc1nc(-c2cccnc2)cs1` [Masitinib] (top concentration 10000 nM), the “selective drug sensitivity score” value is -4.38.

For the compound `CCN(CC)CCCC(C)Nc1c2ccc(Cl)cc2nc2ccc(OC)cc12` (stereo not given) [Mepacrine] (top concentration 50000 nM), the “selective drug sensitivity score” value is -10.8.

Consider `COc1ccc(-c2ccc3ncc4c(c3c2)n(-c2ccc(N3CCNCC3)c(C(F)(F)F)c2)c(=O)n4C)cn1` [NVP-BGT226] (top concentration 1000 nM), for which the “selective drug sensitivity score” value is -3.58.

As for `COc1nc(N)nc2c1ncn2[C@@H]1O[C@H](CO)[C@@H](O)[C@@H]1O` [Nelarabine] (top concentration 10000 nM), the “selective drug sensitivity score” value is -10.2.

Consider `Cc1cn(-c2cc(NC(=O)c3ccc(C)c(Nc4nccc(-c5cccnc5)n4)c3)cc(C(F)(F)F)c2)cn1` [Nilotinib] (top concentration 10000 nM), for which the “selective drug sensitivity score” value stood at 0.

In the case of `NC(=O)c1cccc2cn(-c3ccc(C4CCCNC4)cc3)nc12` (stereo not given) [Niraparib] (top concentration 10000 nM), the “selective drug sensitivity score” value is -3.32.

Consider `COc1ccc(C[C@H](NC(=O)[C@H](C)NC(=O)CN2CCOCC2)C(=O)N[C@@H](Cc2ccccc2)C(=O)[C@@]2(C)CO2)cc1` [ONX-0914] (top concentration 10000 nM), for which the “selective drug sensitivity score” value is -4.2.

Turning to `CC(=O)c1cnc2ccc(-c3cc(Cl)c(O)c(Cl)c3)nc2c1N[C@H]1CC[C@H](CN(C)C)CC1` [OTS167] (top concentration 1000 nM), the “selective drug sensitivity score” value was -12.1.

Take `COC(=O)C[C@](O)(CCCC(C)(C)O)C(=O)O[C@@H]1C(OC)=C[C@]23CCCN2CCc2cc4c(cc2[C@H]13)OCO4` [Omacetaxine] (top concentration 10000 nM): the “selective drug sensitivity score” value is -14.8.
